Measured values: US8247211B2, “Glycopeptide antibiotics” (American Cyanamid Company, priority 2001, dated 2012)

Key:
Assay in all cases: In vitro antibacterial evaluation: minimum inhibitory concentration (MIC), broth dilution method
Type in all cases: cell-based
Settings in all cases: 18 hours at 35° C.
Enterococcus sp. = tested on: Enterococcus sp.
Procedure, shortened: (§1)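 MIC by broth dilution in Mueller-Hinton II medium following NCCLS M7-A2. Inoculum was 5×10^5 CFU/mL and antibiotic was tested over 64-0.06 μg/mL. Gram-positive panel included clinical isolates resistant to methicillin, penicillin and/or vancomycin.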

Escherichia coli = tested on: Escherichia coli
Procedure, shortened: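 Test strains, among them recent clinical isolates carrying methicillin, penicillin and/or vancomycin resistance, were inoculated at 5×10^5 CFU/mL. A broth dilution series spanning 64-0.06 μg/mL in Muller-Hinton II […] (NCCLS M7-A2) defined the MIC as the lowest growth-inhibiting concentration.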

Staphylococcus sp. = tested on: Staphylococcus sp.
Procedure, shortened: as §1

Streptococcus sp. = tested on: Streptococcus sp.
Procedure, shortened: as §1

[1] = Enterococcus faecalis (ATCC 29212)
[2] = Enterococcus faecalis (GC 2242)
[3] = Enterococcus faecalis (GC 4552)
[4] = Enterococcus faecalis (GC 4553)
[5] = Enterococcus faecalis (GC 4554)
[6] = broth dilution, strain ATCC 29212
[7] = Coagulase Negative Staphylococcus (GC 4547)
[8] = Coagulase Negative Staphylococcus (GC 4548)
[9] = Coagulase Negative Staphylococcus (GC 4549)
[10] = Coagulase Negative Staphylococcus (GC 4551)
[11] = Coagulase Negative Staphylococcus (ID-3941)
[12] = Staphylococcus aureus (ATCC 29213)
[13] = Staphylococcus aureus (GC 1131)
[14] = Staphylococcus aureus (GC 4541)
[15] = Staphylococcus aureus (GC 4542)
[16] = Staphylococcus aureus (GC 4544)
[17] = Staphylococcus aureus (GC 4545)
[18] = Staphylococcus aureus-SMITH (GC 4543)
[19] = Staphylococcus haemolyticus (GC 4546)
[20] = broth dilution, strain ATCC 29213
[21] = Streptococcus agalactiae (GC 4564)
[22] = Streptococcus pneumoniae (GC 4565)
[23] = Streptococcus pyogenes (ID-3187)

β-O-[(Pentylamino)carbonyl]-cyclo[glycyl-β-methylphenylalanyl-O-(4-O-hexopyranosylhexopyranosyl)tyrosyl-3-(2-iminoimidazolidin-4-yl)seryl-3-(3-hexopyranosyl-2-iminoimidazolidin-4-yl)serylseryl] [Example 251a]
MIC Enterococcus avium (GC 4558) (Enterococcus sp.; Enterococcus avium (GC 4558)): >64 µg/mL
MIC Enterococcus faecalis (ATCC 29212) (Enterococcus sp.; [1]): >64 µg/mL
MIC Enterococcus faecalis (GC 2242) (Enterococcus sp.; [2]): >64 µg/mL
MIC Enterococcus faecalis (GC 4552) (Enterococcus sp.; [3]): >64 µg/mL
MIC Enterococcus faecalis (GC 4553) (Enterococcus sp.; [4]): >64 µg/mL
MIC Enterococcus faecalis (GC 4554) (Enterococcus sp.; [5]): >64 µg/mL
MIC Enterococcus faecium (GC 2243) (Enterococcus sp.; Enterococcus faecium (GC 2243)): >64 µg/mL
MIC Enterococcus faecium (GC 4556) (Enterococcus sp.; Enterococcus faecium (GC 4556)): >64 µg/mL
MIC Enterococcus faecium (GC 4557) (Enterococcus sp.; Enterococcus faecium (GC 4557)): 16 µg/mL
MIC Enterococcus faecalis (ATCC 29212) (Enterococcus sp.; [6]): >64 µg/mL
MIC Enterococcus faecalis (GC 2242) (Enterococcus sp.; broth dilution, strain GC 2242): >64 µg/mL
MIC Enterococcus faecium (GC 2243) (Enterococcus sp.; broth dilution, strain GC 2243): >64 µg/mL
MIC Enterococcus faecalis (GC 4552) (Enterococcus sp.; broth dilution, strain GC 4552): >64 µg/mL
MIC Enterococcus faecalis (GC 4553) (Enterococcus sp.; broth dilution, strain GC 4553): >64 µg/mL
MIC Enterococcus faecalis (GC 4554) (Enterococcus sp.; broth dilution, strain GC 4554): >64 µg/mL
MIC Enterococcus faecium (GC 4556) (Enterococcus sp.; broth dilution, strain GC 4556): >64 µg/mL
MIC Enterococcus faecium (GC 4557) (Enterococcus sp.; broth dilution, strain GC 4557): 16 µg/mL
MIC Enterococcus avium (GC 4558) (Enterococcus sp.; broth dilution, strain GC 4558): >64 µg/mL
MIC Escherichia coli (ATCC 25922) (Escherichia coli): >64 µg/mL
MIC Escherichia coli (GC 4559) (Escherichia coli): >64 µg/mL
MIC Escherichia coli (GC 4560) (Escherichia coli): 8 µg/mL
MIC Coagulase Negative Staphylococcus (GC 4547) (Staphylococcus sp.; [7]): 64 µg/mL
MIC Coagulase Negative Staphylococcus (GC 4548) (Staphylococcus sp.; [8]): 64 µg/mL
MIC Coagulase Negative Staphylococcus (GC 4549) (Staphylococcus sp.; [9]): 32 µg/mL
MIC Coagulase Negative Staphylococcus (GC 4551) (Staphylococcus sp.; [10]): >64 µg/mL
MIC Coagulase Negative Staphylococcus (ID-3941) (Staphylococcus sp.; [11]): 16 µg/mL
MIC Staphylococcus aureus (ATCC 29213) (Staphylococcus sp.; [12]): >64 µg/mL
MIC Staphylococcus aureus (GC 1131) (Staphylococcus sp.; [13]): >64 µg/mL
MIC Staphylococcus aureus (GC 4541) (Staphylococcus sp.; [14]): 64 µg/mL
MIC Staphylococcus aureus (GC 4542) (Staphylococcus sp.; [15]): 64 µg/mL
MIC Staphylococcus aureus (GC 4544) (Staphylococcus sp.; [16]): >64 µg/mL
MIC Staphylococcus aureus (GC 4545) (Staphylococcus sp.; [17]): 64 µg/mL
MIC Staphylococcus aureus-SMITH (GC 4543) (Staphylococcus sp.; [18]): 64 µg/mL
MIC Staphylococcus haemolyticus (GC 4546) (Staphylococcus sp.; [19]): 64 µg/mL
MIC Staphylococcus aureus (ATCC 29213) (Staphylococcus sp.; [20]): >64 µg/mL
MIC Staphylococcus aureus (GC 1131) (Staphylococcus sp.; broth dilution, strain GC 1131): >64 µg/mL
MIC Staphylococcus aureus (GC 4541) (Staphylococcus sp.; broth dilution, strain GC 4541): 64 µg/mL
MIC Staphylococcus aureus (GC 4542) (Staphylococcus sp.; broth dilution, strain GC 4542): 64 µg/mL
MIC Staphylococcus aureus-SMITH (GC 4543) (Staphylococcus sp.; broth dilution, strain GC 4543): 64 µg/mL
MIC Staphylococcus aureus (GC 4544) (Staphylococcus sp.; broth dilution, strain GC 4544): >64 µg/mL
MIC Staphylococcus aureus (GC 4545) (Staphylococcus sp.; broth dilution, strain GC 4545): 64 µg/mL
MIC Staphylococcus haemolyticus (GC 4546) (Staphylococcus sp.; broth dilution, strain GC 4546): 64 µg/mL
MIC Coagulase Negative Staphylococcus (GC 4547) (Staphylococcus sp.; broth dilution, strain GC 4547): 64 µg/mL
MIC Coagulase Negative Staphylococcus (GC 4548) (Staphylococcus sp.; broth dilution, strain GC 4548): 64 µg/mL
MIC Coagulase Negative Staphylococcus (GC 4549) (Staphylococcus sp.; broth dilution, strain GC 4549): 32 µg/mL
MIC Coagulase Negative Staphylococcus (GC 4551) (Staphylococcus sp.; broth dilution, strain GC 4551): >64 µg/mL
MIC Coagulase Negative Staphylococcus (ID-3941) (Staphylococcus sp.; broth dilution, strain ID-3941): 16 µg/mL
MIC Streptococcus agalactiae (GC 4564) (Streptococcus sp.; [21]): 32 µg/mL
MIC Streptococcus pneumoniae (GC 4565) (Streptococcus sp.; [22]): 8 µg/mL
MIC Streptococcus pyogenes (ID-3187) (Streptococcus sp.; [23]): 16 µg/mL
MIC Streptococcus agalactiae (GC 4564) (Streptococcus sp.; broth dilution, strain GC 4564): 32 µg/mL
MIC Streptococcus pneumoniae (GC 4565) (Streptococcus sp.; broth dilution, strain GC 4565): 8 µg/mL
MIC Streptococcus pyogenes (ID-3187) (Streptococcus sp.; broth dilution, strain ID-3187): 16 µg/mL

γ-O-[(Dodecylamino)carbonyl]-cyclo[glycyl-β-methylphenylalanyl-O-(4-O-hexopyranosylhexopyranosyl]tyrosyl-3-(2-iminoimidazolidin-4-yl)seryl-3-(3-hexopyranosyl-2-iminoimidazolidin-4-yl)serylseryl] [Example 254b]
MIC Enterococcus avium (GC 4558) (Enterococcus sp.; Enterococcus avium (GC 4558)): 4 µg/mL
MIC Enterococcus faecalis (ATCC 29212) (Enterococcus sp.; [1]): 8 µg/mL
MIC Enterococcus faecalis (GC 2242) (Enterococcus sp.; [2]): 8 µg/mL
MIC Enterococcus faecalis (GC 4552) (Enterococcus sp.; [3]): 8 µg/mL
MIC Enterococcus faecalis (GC 4553) (Enterococcus sp.; [4]): 4 µg/mL
MIC Enterococcus faecalis (GC 4554) (Enterococcus sp.; [5]): 4 µg/mL
MIC Enterococcus faecium (GC 2243) (Enterococcus sp.; Enterococcus faecium (GC 2243)): 4 µg/mL
MIC Enterococcus faecium (GC 4556) (Enterococcus sp.; Enterococcus faecium (GC 4556)): 8 µg/mL
MIC Enterococcus faecium (GC 4557) (Enterococcus sp.; Enterococcus faecium (GC 4557)): 8 µg/mL
MIC Enterococcus faecalis (ATCC 29212) (Enterococcus sp.; [6]): 8 µg/mL
MIC Enterococcus faecalis (GC 2242) (Enterococcus sp.; broth dilution, strain GC 2242): 8 µg/mL
MIC Enterococcus faecium (GC 2243) (Enterococcus sp.; broth dilution, strain GC 2243): 4 µg/mL
MIC Enterococcus faecalis (GC 4552) (Enterococcus sp.; broth dilution, strain GC 4552): 8 µg/mL
MIC Enterococcus faecalis (GC 4553) (Enterococcus sp.; broth dilution, strain GC 4553): 4 µg/mL
MIC Enterococcus faecalis (GC 4554) (Enterococcus sp.; broth dilution, strain GC 4554): 4 µg/mL
MIC Enterococcus faecium (GC 4556) (Enterococcus sp.; broth dilution, strain GC 4556): 8 µg/mL
MIC Enterococcus faecium (GC 4557) (Enterococcus sp.; broth dilution, strain GC 4557): 8 µg/mL
MIC Enterococcus avium (GC 4558) (Enterococcus sp.; broth dilution, strain GC 4558): 4 µg/mL
MIC Escherichia coli (ATCC 25922) (Escherichia coli): 64 µg/mL
MIC Escherichia coli (GC 4559) (Escherichia coli): 64 µg/mL
MIC Escherichia coli (GC 4560) (Escherichia coli): 16 µg/mL
MIC Coagulase Negative Staphylococcus (GC 4547) (Staphylococcus sp.; [7]): 8 µg/mL
MIC Coagulase Negative Staphylococcus (GC 4548) (Staphylococcus sp.; [8]): 2 µg/mL
MIC Coagulase Negative Staphylococcus (GC 4549) (Staphylococcus sp.; [9]): 4 µg/mL
MIC Coagulase Negative Staphylococcus (GC 4551) (Staphylococcus sp.; [10]): 4 µg/mL
MIC Coagulase Negative Staphylococcus (ID-3941) (Staphylococcus sp.; [11]): 2 µg/mL
MIC Staphylococcus aureus (ATCC 29213) (Staphylococcus sp.; [12]): 8 µg/mL
MIC Staphylococcus aureus (GC 1131) (Staphylococcus sp.; [13]): 4 µg/mL
MIC Staphylococcus aureus (GC 4541) (Staphylococcus sp.; [14]): 4 µg/mL
MIC Staphylococcus aureus (GC 4542) (Staphylococcus sp.; [15]): 8 µg/mL
MIC Staphylococcus aureus (GC 4544) (Staphylococcus sp.; [16]): 8 µg/mL
MIC Staphylococcus aureus (GC 4545) (Staphylococcus sp.; [17]): 8 µg/mL
MIC Staphylococcus aureus-SMITH (GC 4543) (Staphylococcus sp.; [18]): 4 µg/mL
MIC Staphylococcus haemolyticus (GC 4546) (Staphylococcus sp.; [19]): 8 µg/mL
MIC Staphylococcus aureus (ATCC 29213) (Staphylococcus sp.; [20]): 8 µg/mL
MIC Staphylococcus aureus (GC 1131) (Staphylococcus sp.; broth dilution, strain GC 1131): 4 µg/mL
MIC Staphylococcus aureus (GC 4541) (Staphylococcus sp.; broth dilution, strain GC 4541): 4 µg/mL
MIC Staphylococcus aureus (GC 4542) (Staphylococcus sp.; broth dilution, strain GC 4542): 8 µg/mL
MIC Staphylococcus aureus-SMITH (GC 4543) (Staphylococcus sp.; broth dilution, strain GC 4543): 4 µg/mL
MIC Staphylococcus aureus (GC 4544) (Staphylococcus sp.; broth dilution, strain GC 4544): 8 µg/mL
MIC Staphylococcus aureus (GC 4545) (Staphylococcus sp.; broth dilution, strain GC 4545): 8 µg/mL
MIC Staphylococcus haemolyticus (GC 4546) (Staphylococcus sp.; broth dilution, strain GC 4546): 8 µg/mL
MIC Coagulase Negative Staphylococcus (GC 4547) (Staphylococcus sp.; broth dilution, strain GC 4547): 8 µg/mL
MIC Coagulase Negative Staphylococcus (GC 4548) (Staphylococcus sp.; broth dilution, strain GC 4548): 2 µg/mL
MIC Coagulase Negative Staphylococcus (GC 4549) (Staphylococcus sp.; broth dilution, strain GC 4549): 4 µg/mL
MIC Coagulase Negative Staphylococcus (GC 4551) (Staphylococcus sp.; broth dilution, strain GC 4551): 4 µg/mL
MIC Coagulase Negative Staphylococcus (ID-3941) (Staphylococcus sp.; broth dilution, strain ID-3941): 2 µg/mL
MIC Streptococcus agalactiae (GC 4564) (Streptococcus sp.; [21]): <0.5 µg/mL
MIC Streptococcus pneumoniae (GC 4565) (Streptococcus sp.; [22]): <0.5 µg/mL
MIC Streptococcus pyogenes (ID-3187) (Streptococcus sp.; [23]): <0.5 µg/mL
MIC Streptococcus agalactiae (GC 4564) (Streptococcus sp.; broth dilution, strain GC 4564): <0.5 µg/mL
MIC Streptococcus pneumoniae (GC 4565) (Streptococcus sp.; broth dilution, strain GC 4565): <0.5 µg/mL
MIC Streptococcus pyogenes (ID-3187) (Streptococcus sp.; broth dilution, strain ID-3187): <0.5 µg/mL
